Experimental data reported in PubChem BioAssay (NCI).
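Grown in 96-well plates, cells were treated for 48 hours with each compound at five concentrations. Insufficient inhibition: endpoint recorded as highest concentration tested. The concentration for 50% growth inhibition is given as GI50. TGI: total growth inhibition.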

Assays:
Assay in all cases: NCI tumour cell line growth inhibition, 48 h; in the data active = GI50 below about 0.43 µM; inactive = the rest
[1] = system: HCT-116 colon
[2] = system: HL-60(TB) leukemia
[3] = system: KM12 colon
[4] = system: MALME-3M melanoma
[5] = system: NCI-H226 lung
[6] = system: NCI-H460 lung
[7] = system: PC-3 prostate
[8] = system: SF-268 CNS
[9] = system: SK-MEL-2 melanoma
[10] = system: UO-31 renal

CCOC(CN(C)C(=S)Nc1cccc2ccccc12)OCC
> 10 µM: TGI [1] | TGI [2] | TGI [3] | TGI [4] | TGI [5] | TGI [6] | TGI [7] | TGI [8] | TGI [9] | TGI [10]

O/C(=C\c1nc2ccccc2nc1NC12CC3CC(CC(C3)C1)C2)c1ccc(Br)cc1
> 10 µM: TGI [1] | TGI [2] | TGI [3] | TGI [4] | TGI [5] | TGI [6] | TGI [7] | TGI [8] | TGI [9] | TGI [10]

O=C(Nc1ccc(-n2cc(-c3ccncc3)c(-c3ccc(O)c(Cl)c3)n2)cc1)Nc1cccc(Cl)c1Cl
inactive: GI50 [1] 3.26 µM | GI50 [2] 7.49 µM | GI50 [3] 5.95 µM | GI50 [4] 4.94 µM | GI50 [5] > 32.5 µM | GI50 [6] 5.74 µM | GI50 [7] 1730 nM | GI50 [8] 18.6 µM | GI50 [9] 7.18 µM | GI50 [10] 6.67 µM
14.3 µM: TGI [7]
21.6 µM: TGI [1]
> 32.5 µM: TGI [2] | TGI [3] | TGI [4] | TGI [5] | TGI [6] | TGI [8] | TGI [9] | TGI [10]

Cc1ccc(S(=O)(=O)NC(=O)NNc2ccc(F)cc2)cc1
> 100 µM: TGI [1] | TGI [2] | TGI [3] | TGI [4] | TGI [5] | TGI [6] | TGI [7] | TGI [8] | TGI [9]
> 31.6 µM: TGI [10]

COC(=O)C1(Cc2ccc3c(c2)CCC3)Cc2ccccc2C1=O (stereo not given)
20.3 µM: TGI [3]
70.7 µM: TGI [8]
50.5 µM: TGI [5]
32.4 µM: TGI [2]
93.6 µM: TGI [6]
> 100 µM: TGI [4] | TGI [7]
38.7 µM: TGI [9]
46.6 µM: TGI [1]
84.4 µM: TGI [10]

Nc1nc(Nc2ccc(Cl)cc2)sc1C(=O)c1cccs1
75.3 µM: TGI [5]
> 100 µM: TGI [1] | TGI [2] | TGI [3] | TGI [4] | TGI [6] | TGI [7] | TGI [9]
95.9 µM: TGI [10]
83.4 µM: TGI [8]

O=C(O)c1ccc2c(c1)CC1(C2)Cc2cc3c(cc2C1=O)CCC3 (stereo not given)
> 100 µM: TGI [1] | TGI [2] | TGI [3] | TGI [4] | TGI [5] | TGI [6] | TGI [7] | TGI [8] | TGI [9] | TGI [10]

COc1cc(OCc2ccc3nc(OC)c(OC)nc3c2)cc(OC)c1OC
> 2.29 µM: TGI [9]
> 10 µM: TGI [1] | TGI [2] | TGI [3] | TGI [4] | TGI [5] | TGI [6] | TGI [8] | TGI [10]
> 4.95 µM: TGI [7]
